Test results: US20130289520A1, “TARGETED AND LIGHT-ACTIVATED CYTOSOLIC DRUG DELIVERY” (CHILDREN'S HOSPITAL BOSTON, priority 2010, published 2013)

Columns and labels:
LN-229 cells [1] = assay: Light-induced cytosolic release of NP cargo after endocytosis; type: cell-based, human; conditions: co-incubated overnight with PEI-PEG coated NPs; green light
Experimental: Following overnight NP endocytosis, cells were exposed to green excitation light (520-550 nm, MWIG3/TRITC filter) for durations ranging from 3 s to 120 s. […] Confocal micrographs were analyzed using the software package Image-J. Average cell fluorescence was determined by manual contouring of cell borders. Data were then imported into Matlab (The Mathworks) for analysis and plotting purposes. The amount of dye released in the cell cytosol following light stimulation was taken as the difference in average cell fluorescence before and after light exposure.

LN-229 cells [2] = assay: Light-activated cytosolic delivery of co-endocytosed dextran, NeutrAvidin and QD; type: cell-based, human; conditions: for cytosolic delivery of co-endocytosed macromolecule or particle after light stimulation of NPs: LN-229 cells, overnight co-endocytosis with NPs, TRITC-filtered light 30 to 120 s
Experimental: We then determined whether the NPs could liberate co-endocytosed macromolecules and nanoparticles. […] In this experiment, one set of LN-229 cells was incubated with NPs loaded with a releasable cargo dye (Alexa 546), while a second set was incubated with NPs carrying a dye covalently bound to their matrix during synthesis (Alexa633; so it could not be released). The two cells populations were then plated together, and incubated in the presence of dextran-FITC. […] The lower release kinetics of dextran in the case of the covalently labeled Alexa633-NPs may be explained by a lower excitation efficiency of this fluorophore through the TRITC filter set used for exposure.
LN-229 cells were biotinylated at room temperature with NHS-PEO4-biotin in D-PBS (500 μM, Pierce) supplemented with 10 mM glucose for 30 min, washed ×5 in D-PBS, and trypsinized in 0.01% trypsin/EDTA. Cells were collected with DMEM-10% FBS, centrifuged for 5 min at 1,000 rpm, and resuspended in a 50 μg/mL solution of dye-loaded NP-streptavidin in D-PBS-glucose. After 30 min, the cells were washed twice in D-PBS, resuspended in DMEM-10% FBS, and plated on 12 mm glass coverslips at a density of ˜10^5 cells/cm^2. Dextran-FITC (3 kDa, Sigma), NeutrAvidin-FITC (Pierce), or QD525-streptavidin conjugates (Invitrogen) were added to the cells at respective concentrations of 1 mg/mL, 5 μg/mL, and 2 nM. Cells were placed in a 37° C. incubator overnight with 5% CO2 to allow for coverslip attachment and simultaneous endocytosis of the surface-bound NP-streptavidin conjugates, as well as dextran, NeutrAvidin, or QDs present in the culture medium. After overnight endocytosis, cells were washed twice in D-PBS, and transferred to a live-cell imaging chamber for light stimulation and observation in D-PBS supplemented with 10 mM glucose.
For experiments involving two types of NPs, the orange pseudo-colored NPs were the post-synthesis Alexa 546 loaded NPs used in all other experiments, while the red pseudo-colored NPs were covalently bound to Alexa 633 incorporated during synthesis of the NPs (1 μL of MPTMS and 20 μL of a 10 mM stock solution of Alexa 633-maleimide were incubated overnight at room temperature, and premixed with the silicate precursors before injection into the reaction mixture. Unreacted dye was removed during the surfactant extraction process). The “orange” nanoparticles can release part of their cargo, while the dye is irreversibly bound to the silica matrix for the “red” NPs. After trypsinization, the biotinylated LN-229 cells were incubated separately with each type of NP, and remixed at 1:1 before plating and overnight incubation with dextran-FITC.

| Molecule | cytosolic release of co-endocytosed compound after light exposure (LN-229 cells [1]) | cytosolic delivery of co-endocytosed macromolecule or particle after light stimulation of NPs (LN-229 cells [2]) | time to maximum cell fluorescence (LN-229 cells [2]; following the end of 120 s light exposure) [min] | cytosolic delivery of co-endocytosed macromolecule or particle after light stimulation of NPs (LN-229 cells [2]; listed as QD525-streptavidin) |
| --- | --- | --- | --- | --- |
| O=C(O)CN(CC(=O)O)Cc1cc2c(cc1O)Oc1cc(O)c(CN(CC(=O)O)CC(=O)O)cc1C21OC(=O)c2ccccc21 [calcein] | cytosolic release |  |  |  |
| NeutrAvidin: NeutrAvidin-FITC protein conjugate (Pierce) |  | could also be delivered to the cell cytosol | > 10 |  |
| dextran-FITC |  | successfully mediated cytosolic delivery |  |  |
| quantum-dot-streptavidin conjugates: QD525-streptavidin conjugates (Invitrogen) |  | remained clustered in the endo-lysosomal compartment |  | do not migrate into the cytosol |
